Results taken from EP3290417A1, “2-CHLORO-N-[2-(1,3-THIAZOL-5-YL)ETHYL]-5-(5-FLUOROPYRIMIDIN-2-YL)-BENZAMIDES AND THEIR USE AS P2X7 RECEPTOR ANTAGONISTS” (AXXAM S.p.A., priority 2016, dated 2018).

How the values were obtained:
human P2X7 channel = target: T1, human P2X7 channel (Homo sapiens, UniProt Q99572); assay: human P2X7 channel assay by automated patch-clamp (QPatch16X, whole-cell voltage clamp); assay type: cell-based; settings: HEK-293 cells expressing the P2X7 channels; current evoked by 100 microM BzATP; held at -80 mV; room temperature; read-out: hP2X7 (IC50; nM)
T1 construct: expressed in transfected cells; host or cells: HEK-293
T1 sequence (Q99572 1-595): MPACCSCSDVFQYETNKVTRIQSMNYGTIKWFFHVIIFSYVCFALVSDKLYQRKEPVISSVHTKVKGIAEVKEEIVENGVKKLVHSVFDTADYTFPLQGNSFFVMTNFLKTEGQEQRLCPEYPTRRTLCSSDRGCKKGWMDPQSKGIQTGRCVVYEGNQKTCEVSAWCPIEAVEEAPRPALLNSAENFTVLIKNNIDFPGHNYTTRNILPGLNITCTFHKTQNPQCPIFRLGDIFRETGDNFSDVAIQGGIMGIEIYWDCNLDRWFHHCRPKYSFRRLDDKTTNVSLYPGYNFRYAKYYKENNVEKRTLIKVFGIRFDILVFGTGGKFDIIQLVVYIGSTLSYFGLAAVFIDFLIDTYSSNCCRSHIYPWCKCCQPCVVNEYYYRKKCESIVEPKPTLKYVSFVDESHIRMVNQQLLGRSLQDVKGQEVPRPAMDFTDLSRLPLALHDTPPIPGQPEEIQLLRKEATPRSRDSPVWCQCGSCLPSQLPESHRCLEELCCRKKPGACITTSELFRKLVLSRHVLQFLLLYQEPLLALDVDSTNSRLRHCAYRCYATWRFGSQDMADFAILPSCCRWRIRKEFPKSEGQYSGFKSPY
Description: In order to directly monitor the block of P2X7 channel, an electrophysiological assay was developed and implemented on the QPatch16X automated electrophysiology instrument.
HEK-293 cells expressing the P2X7 channels were cultured in modified EMEM.
72 hours before experiment, 5 million cells were seeded onto T225 flasks. Just before the experiment cells were washed twice, detached from the flask with trypsin-EDTA, re-suspended in the suspension solution and placed on the QPatch 16x.
The compounds (20 mM in a 100% DMSO) stored at -20°C were prepared the day of the experiment (a first dilution 1:20 in 100% DMSO to prepare a 1 mM stock solution, then a 1 microM solution in external solution + a serial dilution 1:10).
The standard whole-cell voltage clamp experiments were performed at room temperature. For these experiments the multihole technology was used and the data were sampled at 2 KHz.
The intracellular solution contained (mM) 135 CsF, 10 NaCl, 1 EGTA, 10 HEPES, (pH 7.2 with CsOH) whereas the extracellular contained (mM) 145 NaCl, 4 KCl, 0.5 MgCl2, 1 CaCl2, 10 HEPES, 10 Glc (pH 7.4 with NaOH).
After establishment of the seal and the passage in the whole cell configuration, the cells were held at -80 mV. The P2XR7 current was evoked by applying 100 microM of BzATP alone (4 times) and then in the presence increasing concentrations of the compound under investigation (1, 10, 100 and 1000 nM).
The pre-incubation periods 5 to 8 contain increasing concentrations of the compound of interest (1, 10, 100 and 1000 nM), as illustrated in Figure.
The maximal inward current evoked by BzATP in absence or presence of increasing concentrations of the compounds under investigation was measured and normalized. The potential modulatory effect was measured as % of control and as IC50 determined fitting the dose-response curves data with the following equation: Y = 100/(1+10^(∧)((LogIC50−X)*HillSlope)) [formula] where: • X: log of concentration • Y: normalized response, 100% down to 0%, decreasing as X increases. • LogIC50: same log units as X • HillSlope: slope factor or HS, unitless

rat P2X7R = target: T2, rat P2X7R (Rattus norvegicus, UniProt Q64663); assay: rat P2X7 Ca2+ influx assay, Screen Quest Fluo-8 No Wash Calcium Assay Kit (FLIPRTETRA); assay type: cell-based; settings: HEK-293 cells stably transfected with rat P2X7R; BzATP at ~EC80; 5' incubation with compound; read-out: rP2X7 (IC50; nM)
T2 construct: expressed in transfected cells; host or cells: HEK-293 (stably transfected)
T2 sequence (Q64663 1-595): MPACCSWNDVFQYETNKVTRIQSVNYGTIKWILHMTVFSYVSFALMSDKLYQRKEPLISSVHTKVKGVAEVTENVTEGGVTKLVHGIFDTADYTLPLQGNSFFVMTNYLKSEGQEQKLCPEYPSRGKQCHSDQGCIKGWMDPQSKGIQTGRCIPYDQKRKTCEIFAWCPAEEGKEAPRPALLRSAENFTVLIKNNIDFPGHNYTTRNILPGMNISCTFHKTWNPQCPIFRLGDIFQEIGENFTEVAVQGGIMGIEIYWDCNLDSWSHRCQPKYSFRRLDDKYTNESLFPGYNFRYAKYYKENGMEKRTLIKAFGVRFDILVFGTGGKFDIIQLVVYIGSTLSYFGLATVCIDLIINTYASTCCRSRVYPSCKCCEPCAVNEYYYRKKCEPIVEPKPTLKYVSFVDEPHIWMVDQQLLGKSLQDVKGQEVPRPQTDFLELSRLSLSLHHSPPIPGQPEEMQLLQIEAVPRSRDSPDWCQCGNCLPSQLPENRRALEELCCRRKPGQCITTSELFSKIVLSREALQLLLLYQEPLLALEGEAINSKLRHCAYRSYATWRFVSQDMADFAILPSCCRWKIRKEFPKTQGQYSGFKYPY
Description: Ca^2+ influx was measured in HEK-293 cells stably transfected with the receptor using Screen Quest™ Fluo-8 No Wash Calcium Assay Kit (AAt Bioquest®). Briefly, once inside the cells, the lipophilic blocking groups of Fluo-8 are cleaved by non-specific cell esterases, resulting in a negatively-charged fluorescent-dye that stays inside cells. Its fluorescence increases upon binding to calcium. When HEK-293/P2X7 cells were stimulated with BzATP, Ca^2+ entered the cells and the fluorescence of Fluo-8 NW increaseed. The dye absorption spectrum was compatible with excitation at 488 nm by argon laser sources and its emission wavelength was in the range of 515-575 nm. […]
Compounds were tested at FLIPRTETRA according to the following method: • first injection at FLIPRTETRA of 10 µL of 3x test compound (in Tyrode's buffer 0.3 mM Ca^2+ / Mg^2+-free + DMSO 0.5% final concentration) • 5' incubation • second injection at FLIPRTETRA of 15 µL of 3x BzATP at ∼EC80 (in Tyrode's buffer 0.3 mM Ca^2+ / Mg^2+-free + BSA 0.0003% final concentration) • Fluorescence recording for 3' […]
The effect of the test compounds was measured as percent inhibition vs the reference antagonist and IC50 values were calculated accordingly.

[1] = metabolic stability in mouse liver microsomes; assay type: in vitro ADME; settings: 1 µM test compound, 1 mg/mL protein, pH 7.4, 0-60 minutes
Description: In vitro evaluation of test compounds for metabolic stability using Rat or Mouse liver
Test System Rat or Mouse Liver Microsomes
• Test compound concentration: 1 µM • Time Points: 0, 5, 10, 30 and 60 minutes • Final Protein concentration: 1 mg/mL • Number of Replicates: Two • Potassium Phosphate Buffer pH 7.4 100 mM • End Point: % Remaining of Test compound, Half life, Clint • Bioanalysis by LC-MS/MS
10 mM stock solution of test compound were prepared in DMSO and dilute with water: acetonitrile (1:1) to a concentration of 1 mM. Working concentration of 100 µM were prepared by further dilution with water: acetonitrile (1: 1).
100 mL of Milli Q water will be added to K2HPO4 (1.398 g) and KH2PO4 (0.27 g) to get final pH 7.4.
Preincubation mixtures: 2.5 µL Test Cpd. + 75 µL Liver microsomes @ 3.33 mg/mL + 85 µL of 100 mM potassium phosphate buffer (Preincubate for 10 min @ 37°C)
60 min w/o cofactor: 32.5 µL of Preincubation mixture + 17.5 µL of 100 mM potassium phosphate buffer (Incubate for 60 min @ 37°C)
0 min sample: 16.25 µL of Preincubation mixture + 200 µL of acetonitrile containing internal standard + 8.75 µL of cofactor Incubation mixture 62 µL of cofactor (2.5 mM) + Remaining incubation mixture (Incubated for 60 min@ 37°C).
Sample preparation: 25 µL incubation mixture + 200 µL of acetonitrile containing internal standard + Vortex 5 min @ 1200 rpm + Centrifuge 10 min @ 4000 rpm. […]

Which IC50 (human P2X7 channel) does the source give for `C#Cc1ncc(C(CNC(=O)c2cc(-c3ncc(F)cn3)ccc2Cl)N2CCC(F)(F)CC2)s1` (centres unmarked) [Compound 9, 2-chloro-N-[2-(4,4-difluoropiperidin-1-yl)-2-(2-ethynyl-1,3-thiazol-5-yl)ethyl]-5-(5-fluoropyrimidin-2-yl)benzamide] here?
The IC50 was 39.2 nM.

For `O=C(NCC(c1scnc1CO)N1CCC(F)(F)CC1)c1cc(-c2ncc(F)cn2)ccc1Cl` (centres unmarked) [Compound 5, 2-chloro-N-{2-[4-(hydroxymethyl)-1,3-thiazol-5-yl]-2-(4,4-difluoropiperidin-1-yl)ethyl}-5-(5-fluoropyrimidin-2-yl)benzamide], which IC50 (human P2X7 channel) is on record?
The IC50 was 64.6 nM.

Which IC50 (rat P2X7R) does the source give for `O=C(NCC(c1cnc(C(F)F)s1)N1CCOCC1)c1cc(-c2ncc(F)cn2)ccc1Cl` (racemic) [Compound 1, (±)-2-chloro-N-{2-[2-(difluoromethyl)-1,3-thiazol-5-yl]-2-(morpholin-4-yl)ethyl}-5-(5-fluoropyrimidin-2-yl)benzamide] here?
The IC50 was 66 nM.

And the IC50 (human P2X7 channel)?
Its IC50 is 47.1 nM.

For `O=C(NCC(c1cnc(C(F)F)s1)N1CCOCC1)c1cc(-c2ncc(F)cn2)ccc1Cl` (single isomer, unassigned; (-)) [Compound 3, (-)-2-chloro-N-{2-[2-(difluoromethyl)-1,3-thiazol-5-yl]-2-(morpholin-4-yl)ethyl}-5-(5-fluoropyrimidin-2-yl)benzamide], which IC50 (rat P2X7R) is on record?
Its IC50 is 48 nM.

And the IC50 (human P2X7 channel)?
Its IC50 is 27 nM.

Which IC50 (human P2X7 channel) does the source give for “2-chloro-N-{2-[4-(cyclopropyl)-1,3-thiazol-5-yl]-2-(4,4-difluoropiperidin-1-yl)ethyl}-5-(5-fluoropyrimidin-2-yl)benzamide [Compound 4]” here?
The IC50 was 103 nM.

With `O=C(NCC(c1scnc1CF)N1CCC(F)(F)CC1)c1cc(-c2ncc(F)cn2)ccc1Cl` (centres unmarked) [Compound 6, 2-chloro-N-{2-[4-(fluoromethyl)-1,3-thiazol-5-yl]-2-(4,4-difluoropiperidin-1-yl)ethyl}-5-(5-fluoropyrimidin-2-yl)benzamide] as the compound, how does the IC50 (human P2X7 channel) read?
The IC50 was 33.3 nM.

What about the Mouse Liver Microsomal Clearance (Cli; µL/min/mg) [1] of the same compound?
Its Mouse Liver Microsomal Clearance (Cli; µL/min/mg) is 47.3 µL/min/mg.

With `O=C(NCC(c1cnc(CF)s1)N1CCOCC1)c1cc(-c2ncc(F)cn2)ccc1Cl` (centres unmarked) [Compound 7, 2-chloro-N-{2-[2-(fluoromethyl)-1,3-thiazol-5-yl]-2-(morpholin-4-yl)ethyl}-5-(5-fluoropyrimidin-2-yl)benzamide] as the compound, how does the IC50 (human P2X7 channel) read?
Its IC50 is 38.3 nM.

Which IC50 (human P2X7 channel) does the source give for `O=C(NCC(c1cnc(CF)s1)N1CCC(F)(F)CC1)c1cc(-c2ncc(F)cn2)ccc1Cl` (centres unmarked) [Compound 8, 2-chloro-N-{2-[2-(fluoromethyl)-1,3-thiazol-5-yl]-2-(4,4-difluoropiperidin-1-yl)ethyl}-5-(5-fluoropyrimidin-2-yl)benzamide] here?
The IC50 was 20.3 nM.
